Some test systems named below: 786-0 renal; M14 melanoma; CAKI-1 renal; KM12 colon; OVCAR-8 ovarian; NCI-H23 lung; UO-31 renal; SF-539 CNS; HT29 colon; NCI-H460 lung.
Holding throughout (assay): inhibition of tumour cell growth, NCI panel, 48 h

Among the data in PubChem BioAssay (NCI) are GI50 and TGI values, retold here.

Molecules are shown by their SMILES. Where “and” joins values, the source holds several entries; their conditions need not be identical. Equal values may be shown once.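 Protocol summary: plate cells (96-well), add compound at 5 concentrations, incubate 48 h, interpolate endpoints linearly. GI50 marks 50% less growth. TGI: concentration producing complete growth inhibition.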

For `Nc1nc(Cl)nc2c1ncn2C1OC(CO)C(O)C1O` (configuration not stated), the GI50 with 786-0 renal is 2.57 µM; with M14 melanoma, 0.999 µM; in the experiment on CAKI-1 renal it was 4.3 µM; in the experiment on KM12 colon, > 100 µM; in the experiment on OVCAR-8 ovarian, 0.403 µM; in the experiment on NCI-H23 lung it was 4.08 µM. The GI50 is 3.32 µM in the experiment on UO-31 renal, > 90.1 µM with SF-539 CNS, > 93.3 µM in the experiment on HT29 colon and 12.6 µM in the experiment with NCI-H460 lung. Moreover, the TGI in the experiment with 786-0 renal is > 73.4 µM; with M14 melanoma, 4.2 µM; in the experiment with CAKI-1 renal, > 100 µM; with KM12 colon, > 100 µM; with OVCAR-8 ovarian it was > 100 µM; with NCI-H23 lung, > 100 µM. Besides, the TGI in the experiment on UO-31 renal, with SF-539 CNS, in the experiment with HT29 colon and in the experiment on NCI-H460 lung was > 100 µM throughout.

Turning to `COc1ccc(Nc2ncccc2C(=O)NCc2cn(Cc3cccc(Oc4ccccc4)c3)nn2)c(OC)c1`, the GI50 in the experiment with 786-0 renal was 3.92 µM; in the experiment with M14 melanoma, 1.37 µM; with CAKI-1 renal it was 1.26 µM; in the experiment with KM12 colon it was 1.11 µM; with OVCAR-8 ovarian, 3.81 µM; in the experiment on NCI-H23 lung it was 2.18 µM. Moreover, the GI50 with UO-31 renal is 5.54 µM; in the experiment with SF-539 CNS, 2.43 µM; in the experiment with HT29 colon it was 1.47 µM; with NCI-H460 lung, 3.19 µM. The TGI with 786-0 renal, in the experiment with M14 melanoma, in the experiment with CAKI-1 renal, in the experiment on KM12 colon, in the experiment with OVCAR-8 ovarian and in the experiment with NCI-H23 lung was > 100 µM throughout. Moreover, the TGI in the experiment on UO-31 renal was > 100 µM; in the experiment with SF-539 CNS, 19.2 µM; in the experiment on HT29 colon, 13.5 µM; with NCI-H460 lung, > 100 µM.

Take `O=C1c2ccccc2-c2ccccc2C1(Cl)Cl`: the GI50 in the experiment with 786-0 renal was 2.11 µM; with M14 melanoma it was 1.26 µM; in the experiment with CAKI-1 renal it was 1.17 µM; with KM12 colon it was 1.73 µM; with OVCAR-8 ovarian it was 0.334 µM; in the experiment with NCI-H23 lung, 1.57 µM. For the same molecule, the GI50 is 1.12 µM in the experiment with UO-31 renal, 1.71 µM in the experiment on SF-539 CNS, 2.52 µM in the experiment with HT29 colon and 1.91 µM in the experiment with NCI-H460 lung. Also, the TGI in the experiment with 786-0 renal is 4.16 µM; in the experiment on M14 melanoma, 2.65 µM; in the experiment with CAKI-1 renal it was 2.63 µM; in the experiment with KM12 colon it was 3.17 µM; with OVCAR-8 ovarian it was 1.26 µM; in the experiment on NCI-H23 lung, 4.25 µM. Besides, the TGI was determined as 2.41 µM with UO-31 renal, 3.23 µM in the experiment on SF-539 CNS, 7.57 µM with HT29 colon and 3.97 µM in the experiment on NCI-H460 lung.

`O=[N+]([O-])c1cccc([I+]c2ccccc2)c1`: the GI50 with 786-0 renal is 13 µM; in the experiment on M14 melanoma, 11.1 µM; in the experiment on CAKI-1 renal, 3.42 µM; in the experiment on KM12 colon, 12 µM; in the experiment on OVCAR-8 ovarian it was 4.37 µM; with NCI-H23 lung, 10.9 µM. For the same molecule, the GI50 in the experiment on UO-31 renal is 8.71 µM; with SF-539 CNS it was 10.8 µM; in the experiment on HT29 colon, 11.9 µM; in the experiment with NCI-H460 lung, 3.56 µM. The TGI with 786-0 renal was determined as 29.9 µM; in the experiment with M14 melanoma it was 33.5 µM; in the experiment on CAKI-1 renal, 49 µM; in the experiment with KM12 colon it was 26.1 µM; with OVCAR-8 ovarian, 17.6 µM; in the experiment on NCI-H23 lung, 31.2 µM. In addition, the TGI in the experiment with UO-31 renal was determined as 85.5 µM; in the experiment on SF-539 CNS it was 24.3 µM; in the experiment with HT29 colon, 31.2 µM; in the experiment on NCI-H460 lung it was 25.3 µM.

For `Cc1nc(-n2nc(-c3ccccc3)cc2-c2ccccc2)sc1C(/C=C/c1ccc([N+](=O)[O-])cc1)=N/NC(N)=S`, the TGI with 786-0 renal was 43.6 µM; in the experiment on M14 melanoma, > 100 µM; with CAKI-1 renal, > 100 µM; with KM12 colon, > 100 µM; in the experiment with OVCAR-8 ovarian, > 100 µM; in the experiment on NCI-H23 lung it was > 100 µM. Moreover, the TGI in the experiment with UO-31 renal, with SF-539 CNS, in the experiment with HT29 colon and in the experiment with NCI-H460 lung was > 100 µM throughout.

In the case of `O=C(NC(Cc1ccccc1)C(=O)CCl)OCc1ccccc1` (configuration not stated), the TGI is 14.7 µM and 16.6 µM in the experiment with 786-0 renal; 19.2 µM and 23 µM in the experiment with M14 melanoma; 21.2 µM and 17.3 µM in the experiment on CAKI-1 renal; 22.2 µM and 21.7 µM with KM12 colon; 15 µM and 17.6 µM with OVCAR-8 ovarian; 30.7 µM and 26.1 µM in the experiment on NCI-H23 lung. Besides, the TGI is 16.4 µM and 25.6 µM in the experiment with UO-31 renal; 10.3 µM and 16.8 µM in the experiment with SF-539 CNS; 16.5 µM and 37.3 µM in the experiment with HT29 colon; 17.4 µM and 19.8 µM in the experiment on NCI-H460 lung. For the same molecule, the GI50 in the experiment with M14 melanoma was 4.69 µM; in the experiment on CAKI-1 renal it was 7.52 µM; in the experiment on NCI-H23 lung it was 10.5 µM; in the experiment on UO-31 renal it was 3.91 µM; with SF-539 CNS, 3 µM; in the experiment on HT29 colon, 3.53 µM. Further, in the experiment on NCI-H460 lung, the GI50 was 4.34 µM.

For the molecule `Cc1cc(C)c(C(=O)/C(=C/c2ccccc2)c2ccccc2)c(C)c1`, the TGI with 786-0 renal, with M14 melanoma, in the experiment with CAKI-1 renal, in the experiment with KM12 colon, in the experiment on OVCAR-8 ovarian and in the experiment with NCI-H23 lung was > 100 µM each time. Moreover, the TGI with UO-31 renal, in the experiment with SF-539 CNS, with HT29 colon and with NCI-H460 lung was > 100 µM each time.

For `Cc1cc2nc3c4cc([N+](=O)[O-])ccc4n(CCN(C)C)c3nc2cc1C`, the GI50 in the experiment with 786-0 renal is 0.628 µM; in the experiment with M14 melanoma it was 0.467 µM; in the experiment on CAKI-1 renal, 0.334 µM; in the experiment with KM12 colon, 0.56 µM; with OVCAR-8 ovarian it was 0.509 µM; in the experiment on NCI-H23 lung, 0.501 µM. The GI50 with UO-31 renal was 0.187 µM; in the experiment with SF-539 CNS, 0.469 µM; with HT29 colon it was 0.387 µM; with NCI-H460 lung it was 0.352 µM. Further, the TGI was 3.02 µM with 786-0 renal; 1.99 µM with M14 melanoma; 2.21 µM in the experiment on CAKI-1 renal; > 100 µM in the experiment on KM12 colon; > 88 µM in the experiment with OVCAR-8 ovarian; 2.58 µM in the experiment with NCI-H23 lung. For the same molecule, the TGI in the experiment with UO-31 renal turned out to be 2.52 µM; in the experiment with SF-539 CNS, 2.56 µM; with HT29 colon, 2.33 µM; with NCI-H460 lung it was 1.75 µM.

With `Oc1[nH]c2ccccc2c1/C=c1/ccc2c(c1)N=C(c1cc(F)cc(F)c1)N=2`, the GI50 in the experiment on 786-0 renal is 10 µM; in the experiment with M14 melanoma it was 2.7 µM; in the experiment with CAKI-1 renal, 2.47 µM; in the experiment with KM12 colon, 4.36 µM; in the experiment on OVCAR-8 ovarian it was 4.56 µM; in the experiment on NCI-H23 lung, 4.13 µM. Further, the GI50 is 3.42 µM in the experiment on UO-31 renal, 13.6 µM in the experiment on SF-539 CNS, 3.6 µM in the experiment on HT29 colon and 7.04 µM in the experiment with NCI-H460 lung. Besides, the TGI worked out at 22 µM in the experiment on 786-0 renal; 13.6 µM in the experiment with M14 melanoma; 15.1 µM in the experiment on CAKI-1 renal; 19 µM in the experiment with KM12 colon; 33.3 µM with OVCAR-8 ovarian; 17.7 µM in the experiment with NCI-H23 lung. The TGI in the experiment with UO-31 renal came out at 20.1 µM; with SF-539 CNS, 31.4 µM; with HT29 colon, 16.2 µM; with NCI-H460 lung, 22.8 µM.

On to `c1cnc2nc3n(c2c1)CSC3`, for which the TGI in the experiment on 786-0 renal, in the experiment on M14 melanoma, in the experiment with CAKI-1 renal, in the experiment with KM12 colon, with OVCAR-8 ovarian and in the experiment on NCI-H23 lung was > 100 µM each time. Moreover, the TGI in the experiment on UO-31 renal, in the experiment on SF-539 CNS, in the experiment with HT29 colon and in the experiment with NCI-H460 lung was > 100 µM each time.

`COc1cc(CC2C(=O)OCC2[C@@H](OC(C)=O)c2ccc3c(c2)OCO3)c(Br)c(OC)c1OC` (some centres not stated): the TGI with 786-0 renal, in the experiment with M14 melanoma, with CAKI-1 renal, with KM12 colon, with OVCAR-8 ovarian and in the experiment with NCI-H23 lung was > 100 µM each time. Moreover, the TGI in the experiment on UO-31 renal, in the experiment on SF-539 CNS, in the experiment with HT29 colon and in the experiment with NCI-H460 lung was > 100 µM throughout.

In the case of `COC(=O)Cc1nn2c(nc1=O)sc1ccc3ccccc3c12`, the TGI in the experiment on 786-0 renal, in the experiment with M14 melanoma, in the experiment on CAKI-1 renal, in the experiment with KM12 colon, in the experiment on OVCAR-8 ovarian and with NCI-H23 lung was > 100 µM each time. Moreover, the TGI with UO-31 renal, in the experiment on SF-539 CNS, in the experiment on HT29 colon and in the experiment on NCI-H460 lung was > 100 µM each time.

As for `NC(CSC1(c2ccc(Cl)cc2)c2ccccc2-c2ccccc21)C(=O)O` (configuration not stated), the TGI with 786-0 renal is 50.9 µM; in the experiment on M14 melanoma, 68.4 µM; in the experiment on CAKI-1 renal it was > 100 µM; in the experiment with KM12 colon, 63.2 µM; in the experiment on OVCAR-8 ovarian it was 38.7 µM; with NCI-H23 lung, 41.1 µM. Moreover, the TGI was 98.8 µM in the experiment on UO-31 renal, 48.5 µM in the experiment with SF-539 CNS, > 100 µM in the experiment on HT29 colon and 39.5 µM in the experiment on NCI-H460 lung.

Turning to `CN(CC1NCCCC1O)C12CC3CC(CC(C3)C1)C2` (configuration not stated), the TGI in the experiment with 786-0 renal, in the experiment with M14 melanoma, with CAKI-1 renal, with KM12 colon, with OVCAR-8 ovarian and with NCI-H23 lung was > 100 µM in each case. The TGI with UO-31 renal, with SF-539 CNS, with HT29 colon and in the experiment with NCI-H460 lung was > 100 µM throughout.

Regarding `COC(=O)c1cc2c(nc1C)-c1ccccc1OS2(=O)=O`, the TGI in the experiment on 786-0 renal, in the experiment with M14 melanoma, in the experiment with CAKI-1 renal, with KM12 colon, with OVCAR-8 ovarian and with NCI-H23 lung was > 100 µM throughout. For the same molecule, the TGI in the experiment with UO-31 renal, in the experiment on SF-539 CNS, in the experiment on HT29 colon and in the experiment with NCI-H460 lung was > 100 µM each time.
